Test results taken from the OPERA property sets (Mansouri et al. 2018).

Going from `Cc1ccc(C(=O)NN=Cc2c(CO)cnc(C)c2O)cc1` to `Cc1ncc(CO)c(C=NNC(=O)c2ccc(N)cc2)c1O`, the logP falls from 2.54 to 1.19.

First: Cc1ncc(CO)c(C=NNC(=O)c2ccccc2)c1O
Second: Cc1ncc(CO)c(C=NNC(=O)c2cccc(Cl)c2)c1O
The logP of the first is lower: 2.23 for the first, 2.96 for the second.

Compared with `Cc1ncc(CO)c(C=NNC(=O)c2ccc(C(C)(C)C)cc2)c1O`, `Cc1ncc(CO)c(C=NNC(=O)c2ccc(O)cc2)c1O` is lower in logP: 3.73 for the first, 1.89 for the second.

First: Cc1ccc(C(=O)NN=Cc2ccccc2O)cc1
Second: O=C(NN=Cc1ccccc1O)c1ccc(O)cc1
The logP of the first is higher: 3.39 for the first, 2.56 for the second.

First: Cc1ncc(CO)c(C=NNC(=O)c2ccc([N+](=O)[O-])cc2)c1O
Second: COc1ccc(C(=O)NN=Cc2c(CO)cnc(C)c2O)cc1
The logP of the first is lower: 1.55 for the first, 2.47 for the second.

`O=C(NN=Cc1ccccc1O)c1cccc(Br)c1` and `O=C(NN=Cc1ccccc1O)c1cccc(Cl)c1` are within 0.2 log units of each other in logP: 3.91 for the first, 3.83 for the second.

Going from `CC(=O)NN=Cc1c(CO)cnc(C)c1O` to `Cc1ncc(CO)c(C=NNC(=O)c2ccco2)c1O`, the logP rises from 0.65 to 1.39.

Going from `Cc1ncc(CO)c(C=NNC(=O)c2ccncc2)c1O` to `Cc1ncc(CO)c(C=NNC(=O)c2cccc(Br)c2)c1O`, the logP rises from 1.14 to 3.07.

Compared with `O=C(NN=Cc1c(O)ccc2ccccc12)c1ccc([N+](=O)[O-])cc1`, `O=C(NN=Cc1c(O)ccc2ccccc12)c1ccc(O)cc1` is higher in logP: 3.58 for the first, 3.95 for the second.

Compared with `O=C(NN=Cc1c(O)ccc2ccccc12)c1cccc(F)c1`, `Nc1ccc(C(=O)NN=Cc2c(O)ccc3ccccc23)cc1` is lower in logP: 4.06 for the first, 3.04 for the second.

Compared with `O=C(NN=Cc1ccccc1O)c1ccc([N+](=O)[O-])cc1`, `Nc1ccc(C(=O)NN=Cc2ccccc2O)cc1` is lower in logP: 3.03 for the first, 2.16 for the second.

Going from `O=C(NN=Cc1ccccc1O)c1ccncc1` to `O=C(NN=Cc1ccccc1O)c1ccccc1`, the logP rises from 2.16 to 3.01.

Going from `CC(=O)NN=Cc1ccccc1O` to `O=C(NN=Cc1ccccc1O)c1cccs1`, the logP rises from 1.71 to 3.03.

First: COc1ccc(C(=O)NN=Cc2c(O)ccc3ccccc23)cc1
Second: COc1ccc(C(=O)NN=Cc2ccccc2O)cc1
The logP of the first is higher: 4.06 for the first, 3.34 for the second.

Going from `Oc1ccccc1C=NNc1ccccn1` to `O=C(NN=Cc1ccccc1O)c1ccco1`, the logP falls from 3.24 to 2.67.

Going from `O=C(NN=Cc1ccccc1O)c1cccc(F)c1` to `CC(C)(C)c1ccc(C(=O)NN=Cc2ccccc2O)cc1`, the logP rises from 3.41 to 4.73.

Going from `Cc1ncc(CO)c(C=NNC(=O)c2cccs2)c1O` to `Cc1ncc(CO)c(C=NNC(=O)c2cccc(F)c2)c1O`, the logP rises from 2.11 to 2.42.

First: O=C(NN=Cc1c(O)ccc2ccccc12)c1ccco1
Second: CC(=O)NN=Cc1c(O)ccc2ccccc12
The logP of the first is higher: 3.41 for the first, 2.91 for the second.

In the case of `Cc1ncc(CO)c(C=NNc2ccccn2)c1O`, the logP was 2.46.
